Experimental data reported in patent publication US11046696B2, “Fused pyrimidine compound or salt thereof” (TAIHO PHARMACEUTICAL CO., LTD., priority 2016, dated 2021).

Experiment: Evaluation of stability in liver microsome
Details: mouse liver microsome, 1 μM, 37° C. for 30 minutes

Row | Remaining (%) | Compound
1 | 70 | COCc1ccc(NC(=O)c2c(SC)n(C3(C)CC3)c3ncnc(N)c23)cc1 [Example 133, 4-amino-N-(4-methoxymethyl)phenyl-7-(1-methylcyclopropyl)-6-(methylthio)-7H-pyrrolo[2,3-d]pyrimidine-5-carboxamide]
2 | 79 | COCc1ccc(NC(=O)c2c(C#Cc3ccc(OC)nc3)n(C3(C)CC3)c3ncnc(N)c23)cc1 [Example 192, 4-amino-N-(4-(methoxymethyl)phenyl)-6-((6-methoxypyridin-3-yl)ethynyl)-7-(1-methylcyclopropyl)-7H-pyrrolo[2,3-d]pyrimidine-5-carboxamide]
3 | 67 | COCc1ccc(NC(=O)c2c(C#CCC3NC(=O)NC3=O)n(C3(C)CC3)c3ncnc(N)c23)cc1 (stereo not drawn) [Example 156, 4-amino-6-(3-(2,5-dioxoimidazolidin-4-yl)prop-1-yn-1-yl)-N-(4-(methoxymethyl)phenyl)-7-(1-methylcyclopropyl)-7H-pyrrolo[2,3-d]pyrimidine-5-carboxamide]
4 | 63 | COCc1ccc(NC(=O)c2c(C#CC3CCOCC3)n(C3(C)CC3)c3ncnc(N)c23)cc1 [Example 87, 4-amino-N-[4-(methoxymethyl)phenyl]-7-(1-methylcyclopropyl)-6-((tetrahydro-2H-pyran-4-yl)ethynyl)-7H-pyrrolo[2,3-d]pyrimidine-5-carboxamide]
5 | 90 | COCc1ccc(NC(=O)c2c(C#Cc3ccc(OC)cc3)n(C3(C)CC3)c3ncnc(N)c23)cc1 [Example 165, 4-amino-N-(4-(methoxymethyl)phenyl)-6-((4-methoxypheny)ethynyl)-7-(1-methylcyclopropyl)-7H-pyrrolo[2,3-d]pyrimidine-5-carboxamide]
6 | 70 | COCc1ccc(NC(=O)c2c(C#Cc3cccs3)n(C3(C)CC3)c3ncnc(N)c23)cc1 [Example 119, 4-amino-N-(4-(methoxymethyl)phenyl)-7-(1-methylcyclopropyl)-6-(thiophen-2-ylethynyl)-7H-pyrrolo[2,3-d]pyrimidine-5-carboxamide]
7 | 68 | COCc1ccc(NC(=O)c2c(OCC3CCOC3)n(C3(C)CC3)c3ncnc(N)c23)cc1 (stereo not drawn) [Example 101, 4-amino-N-(4-(methoxymethyl)phenyl)-7-(1-methylcyclopropyl)-6-((tetrahydrofuran-3-yl)methoxy)-7H-pyrrolo[2,3-d]pyrimidine-5-carboxamide]
8 | 78 | COCc1ccc(NC(=O)c2c(OCCN3CCCC3=O)n(C3(C)CC3)c3ncnc(N)c23)cc1 [Example 136, 4-amino-N-(4-(methoxymethyl)phenyl)-7-(1-methylcyclopropyl)-6-(2-(2-oxopyrrolidin-1-yl)ethoxy)-7H-pyrrolo[2,3-d]pyrimidine-5-carboxamide]
9 | 77 | COCc1ccc(NC(=O)c2c(C#CC3CCN(C)CC3)n(C3(C)CC3)c3ncnc(N)c23)cc1 [Example 183, 4-amino-N-(4-(methoxymethyl)phenyl)-7-(1-methylcyclopropyl)-6-((1-methylpiperidin-4-yl)ethynyl)-7H-pyrrolo[2,3-d]pyrimidine-5-carboxamide]
10 | 74 | COCc1ccc(NC(=O)c2c(C#Cc3c[nH]c4ccccc34)n(C3(C)CC3)c3ncnc(N)c23)cc1 [Example 121, 6-((1H-indol-3-yl)ethynyl)-4-amino-N-(4-(methoxymethyl)phenyl)-7-(1-methylcyclopropyl)-7H-pyrrolo[2,3-d]pyrimidine-5-carboxamide]
11 | 73 | COCc1ccc(NC(=O)c2cn(C3(C)CC3)c3ncnc(N)c23)cc1 [Example 36, 4-amino-N-(4-(methoxymethyl)phenyl)-7-(1-methylcyclopropyl)-7H-pyrrolo[2,3-d]pyrimidine-5-carboxamide]
12 | 55 | COCc1ccc(NC(=O)c2c(C#CC3(O)CCCC3)n(C3(C)CC3)c3ncnc(N)c23)cc1 [Example 131, 4-amino-6-((1-hydroxycyclopentyl)ethynyl)-N-(4-(methoxymethyl)phenyl)-7-(1-methylcyclopropyl)-7H-pyrrolo[2,3-d]pyrimidine-5-carboxamide]
13 | 69 | COCc1ccc(NC(=O)c2c(C#Cc3csc(C)n3)n(C3(C)CC3)c3ncnc(N)c23)cc1 [Example 126, 4-amino-N-(4-(methoxymethyl)phenyl)-7-(1-methylcyclopropyl)-6-((2-methylthiazol-4-yl)ethynyl)-7H-pyrrolo[2,3-d]pyrimidine-5-carboxamide]
14 | 66 | COCc1ccc(NC(=O)c2cn(C3(CF)CC3)c3ncnc(N)c23)cc1 [Example 45, 4-amino-7-(1-(fluoromethyl)cyclopropyl)-N-(4-(methoxymethyl)phenyl)-7H-pyrrolo[2,3-d]pyrimidine-5-carboxamide]
15 | 50 | CC(C)(C)n1cc(C(=O)Nc2ccc(-c3cc[nH]n3)cc2)c2c(N)ncnc21 [Example 80, N-(4-(1H-pyrazol-3-yl)phenyl)-4-amino-7-(tert-butyl)-7H-pyrrolo[2,3-d]pyrimidine-5-carboxamide]
16 | 70 | COCc1ccc(NC(=O)c2c(C#Cc3ccsc3)n(C3(C)CC3)c3ncnc(N)c23)cc1 [Example 176, 4-amino-N-(4-(methoxymethyl)phenyl)-7-(1-methylcyclopropyl)-6-(thiophen-3-ylethynyl)-7H-pyrrolo[2,3-d]pyrimidine-5-carboxamide]
17 | 59 | COCc1ccc(NC(=O)c2c(C#CCN3CCCC3)n(C3(C)CC3)c3ncnc(N)c23)cc1 [Example 88, 4-amino-N-[4-(methoxymethyl)phenyl]-7-(1-methylcyclopropyl)-6-(3-(pyrrolidin-1-yl)prop-1-yn-1-yl)-7H-pyrrolo[2,3-d]pyrimidine-5-carboxamide]
18 | 77 | COCc1ccc(NC(=O)c2c(C#CCN3CCN(C)CC3)n(C3(C)CC3)c3ncnc(N)c23)cc1 [Example 132, 4-amino-N-(4-(methoxymethyl)phenyl)-7-(1-methylcyclopropyl)-6-(3-(4-methylpiperazin-1-yl)prop-1-yn-1-yl)-7H-pyrrolo[2,3-d]pyrimidine-5-carboxamide]
19 | 55 | CCn1nccc1C#Cc1c(C(=O)Nc2ccc(COC)cc2)c2c(N)ncnc2n1C1(C)CC1 [Example 114, 4-amino-6-((1-ethyl-1H-pyrazol-5-yl)ethynyl)-N-(4-(methoxymethyl)phenyl)-7-(1-methylcyclopropyl)-7H-pyrrolo[2,3-d]pyrimidine-5-carboxamide]
20 | 66 | COCc1ccc(NC(=O)c2c(C#Cc3cncc(F)c3)n(C3(C)CC3)c3ncnc(N)c23)cc1 [Example 175, 4-amino-6-((5-fluoropyridin-3-yl)ethynyl)-N-(4-(methoxymethyl)phenyl)-7-(1-methylcyclopropyl)-7H-pyrrolo[2,3-d]pyrimidine-5-carboxamide]
21 | 62 | C=C(C)c1c(C(=O)Nc2ccc(COC)cc2)c2c(N)ncnc2n1C1(C)CC1 [Example 149, 4-amino-N-(4-(methoxymethyl)phenyl)-7-(1-methylcyclopropyl)-6-(prop-1-en-2-yl)-7H-pyrrolo[2,3-d]pyrimidine-5-carboxamide]
22 | 85 | COCc1ccc(NC(=O)c2c(C#Cc3ccc4c(c3)NCCO4)n(C3(C)CC3)c3ncnc(N)c23)cc1 [Example 158, 4-amino-6-((3,4-dihydro-2H-benzo[b][1,4]oxazin-6-yl)ethynyl)-N-(4-(methoxymethyl)phenyl)-7-(1-methylcyclopropyl)-7H-pyrrolo[2,3-d]pyrimidine-5-carboxamide]
23 | 77 | COCc1ccc(NC(=O)c2c(C#CCN3CCOCC3)n(C3(C)CC3)c3ncnc(N)c23)cc1F [Example 206, 4-amino-N-(3-fluoro-4-(methoxymethyl)phenyl)-7-(1-methylcyclopropyl)-6-(3-morpholinoprop-1-yn-1-yl)-7H-pyrrolo[2,3-d]pyrimidine-5-carboxamide]
24 | 67 | COCc1ccc(NC(=O)c2c(C#Cc3ccn(C)n3)n(C3(C)CC3)c3ncnc(N)c23)cc1 [Example 92, 4-amino-N-(4-(methoxymethyl)phenyl)-6-((1-methyl-1H-pyrazol-3-yl)ethynyl)-7-(1-methylcyclopropyl)-7H-pyrrolo[2,3-d]pyrimidine-5-carboxamide]
25 | 67 | COCc1ccc(NC(=O)c2c(-c3cncnc3)n(C3(C)CC3)c3ncnc(N)c23)cc1 [Example 194, 4-amino-N-(4-(methoxymethyl)phenyl)-7-(1-methylcyclopropyl)-6-(pyrimidin-5-yl)-7H-pyrrolo[2,3-d]pyrimidine-5-carboxamide]
26 | 72 | COCc1ccc(NC(=O)c2c(C#CC(C)(C)O)n(C3(C)CC3)c3ncnc(N)c23)cc1 [Example 174, 4-amino-6-(3-hydroxy-3-methylbut-1-yn-1-yl)-N-(4-(methoxymethyl)phenyl)-7-(1-methylcyclopropyl)-7H-pyrrolo[2,3-d]pyrimidine-5-carboxamide]
27 | 80 | COCc1ccc(NC(=O)c2c(-c3cn[nH]c3)n(C3(C)CC3)c3ncnc(N)c23)cc1 [Example 167, 4-amino-N-(4-(methoxymethyl)phenyl)-7-(1-methylcyclopropyl)-6-(1H-pyrazol-4-yl)-7H-pyrrolo[2,3-d]pyrimidine-5-carboxamide]
28 | 53 | COCc1ccc(NC(=O)c2c(C#Cc3cncnc3)n(C3(C)CC3)c3ncnc(N)c23)cc1 [Example 196, 4-amino-N-(4-(methoxymethyl)phenyl)-7-(1-methylcyclopropyl)-6-(pyrimidin-5-ylethynyl)-7H-pyrrolo[2,3-d]pyrimidine-5-carboxamide]
29 | 67 | COCc1ccc(NC(=O)c2c(C#Cc3cnn(C)c3)n(C3(C)CC3)c3ncnc(N)c23)cc1 [Example 90, 4-amino-N-[4-(methoxymethyl)phenyl]-6-((1-methyl-1H-pyrazol-4-yl)ethynyl)-7-(1-methylcyclopropyl)-7H-pyrrolo[2,3-d]pyrimidine-5-carboxamide]

Row | Compound | Remaining (%)
30 | COCc1ccc(NC(=O)c2c(OCC(C)C)n(C3(C)CC3)c3ncnc(N)c23)cc1 [Example 99, 4-amino-6-isobutoxy-N-(4-(methoxymethyl)phenyl)-7-(1-methylcyclopropyl)-7H-pyrrolo[2,3-d]pyrimidine-5-carboxamide] | 51
